Values quoted from earlier work in patent US20070202055A1, “Pharmaceutical Formulations” (priority 2006, published 2007).

How the values were obtained:
[1] = test system: symptoms associated with chronic nasal congestion
[2] = test system: secretions of natural tear components; conditions: preclinical testing

## Oc1cccc(Nc2ncc(F)c(Nc3cccc(O)c3)n2)c1 [Example R112]
[1]
  absolute difference over placebo: 9%
  relative improvement over placebo: greater than 20%
[1]; baseline prior to drug initiation
  improvement from baseline measurements: up to 38%

## Cc1cc(CCCOc2c(C)cc(-c3noc(C(F)(F)F)n3)cc2C)on1 [Pleconaril, 1,2,4-oxadiazole3-[3,5-Dimethyl-4-[3-(3-methyl-5-isoxazolyl)propoxy]phenyl]-5-(trifluoremethyl)]
Aqueous solvents
  solubility in aqueous solvents: insoluble
For example corn oil and ethanol
  solubility in liquids of low polarity: soluble only in liquids of low polarity
rhinoviruses
  activity against rhinoviruses: active

## O=c1ccn([C@@H]2O[C@H](COP(=O)(O)OP(=O)(O)OP(=O)(O)OP(=O)(O)OC[C@H]3O[C@@H](n4ccc(=O)[nH]c4=O)[C@H](O)[C@@H]3O)[C@@H](O)[C@H]2O)c(=O)[nH]1 [diquafosol]
[2]
  effect on secretions of natural tear components: increased the secretions of natural tear components
